Test system: .221A2.1 peptide-loaded target cells and cells expressing endogenous antigen
Assay: Primary in vitro CTL induction with peptide-pulsed DC, CTL lytic activity by 51Cr release
Type: cell-based, human
Details: immunogenicity, CTL recognition of the peptide, positive/tested
Method: Testing was performed using the following methodology:
Cells that express an antigen of interest, or transfectants comprising the gene encoding the antigen of interest, can be used as target cells to test the ability of peptide-specific CTLs to recognize endogenous antigen.
The monocytes are purified by plating 10×10^6 PBMC/well in a 6-well plate. After 2 hours at 37° C., the non-adherent cells are removed by gently shaking the plates and aspirating the supernatants. The wells are washed a total of three times with 3 ml RPMI to remove most of the non-adherent and loosely adherent cells. Three ml of complete medium containing 50 ng/ml of GM-CSF and 1,000 U/ml of IL-4 are then added to each well. TNFα is added to the DCs on day 6 at 75 ng/ml and the cells are used for CTL induction cultures on day 7.
Induction of CTL with DC and Peptide: CD8+ T-cells are isolated by positive selection with Dynal imnmunomagnetic beads (Dynabeads® M-450) and the detacha-bead® reagent. Typically about 200-250×10^6 PBMC are processed to obtain 24×10^6 CD8^+T-cells (enough for a 48-well plate culture). Briefly, the PBMCs are thawed in RPMI with 30 μg/ml DNAse, washed once with PBS containing 1% human AB serum and resuspended in PBS/1% AB serum at a concentration of 20×10^6 cells/ml. The magnetic beads are washed 3 times with PBS/AB serum, added to the cells (140 μl beads/20×10^6 cells) and incubated for 1 hour at 4° C. with continuous mixing. The beads and cells are washed 4× with PBS/AB serum to remove the nonadherent cells and resuspended at 100×10^6 cells/ml (based on the original cell number) in PBS/AB serum containing 100 μl/ml detacha-bead® reagent and 30 μg/ml DNAse. The mixture is incubated for 1 hour at room temperature with continuous mixing. The beads are washed again with PBS/AB/DNAse to collect the CD8+ T-cells. The DC are collected and centrifuged at 1300 rpm for 5-7 minutes, washed once with PBS with 1% BSA, counted and pulsed with 40 μg/ml of peptide at a cell concentration of 1-2×10^6/ml in the presence of 3 μg/ml β2-microglobulin for 4 hours at 20° C. The DC are then irradiated (4,200 rads), washed 1 time with medium and counted again.
Setting up induction cultures: 0.25 ml cytokine-generated DC (@1×10^5 cells/ml) are co-cultured with 0.25 ml of CD8+ T-cells (@2×10^6 cell/ml) in each well of a 48-well plate in the presence of 10 ng/ml of IL-7. Recombinant human IL10 is added the next day at a final concentration of 10 ng/ml and rhuman IL2 is added 48 hours later at 10 IU/mL.
Restimulation of the induction cultures with peptide-pulsed adherent cells: Seven and fourteen days after the primary induction the cells are restimulated with peptide-pulsed adherent cells. The PBMCS are thawed and washed twice with RPMI and DNAse. The cells are resuspended at 5×10^6 cells/ml and irradiated at ˜4200 rads. The PBMCs are plated at 2×10^6 in 0.5 ml complete medium per well and incubated for 2 hours at 37° C. The plates are washed twice with RPMI by tapping the plate gently to remove the nonadherent cells and the adherent cells pulsed with 10 μg/ml of peptide in the presence of 3 μg/ml β2 microglobulin in 0.25 ml RPMI/5% AB per well for 2 hours at 37° C. Peptide solution from each well is aspirated and the wells are washed once with RPMI. Most of the media is aspirated from the induction cultures (CD8+ cells) and brought to 0.5 ml with fresh media. The cells are then transferred to the wells containing the peptide-pulsed adherent cells. Twenty four hours later rhuman IL10 is added at a final concentration of 10 ng/ml and rhuman IL2 is added the next day and again 2-3 days later at 50 IU/ml (Tsai et al., Critical Reviews in Immunology 18(1-2):65-75, 1998). Seven days later the cultures are assayed for CTL activity in a ^51Cr release assay. In some experiments the cultures are assayed for peptide-specific recognition in the in situ IFNγ ELISA at the time of the second restimulation followed by assay of endogenous recognition 7 days later. […]

Compound	A2 peptide
CC(C)C[C@H](NC(=O)[C@H](CC(=O)O)NC(=O)[C@@H](NC(=O)[C@H](CS)NC(=O)[C@H](CCC(N)=O)NC(=O)[C@H](CC(C)C)NC(=O)[C@@H](N)CCCCN)C(C)C)C(=O)N[C@@H](Cc1c[nH]cn1)C(=O)N[C@H](C(=O)O)C(C)C [Peptide 990.01]	1/2
CC[C@H](C)[C@H](N)C(=O)N[C@@H](CC(C)C)C(=O)N[C@@H](CC(C)C)C(=O)N[C@@H](Cc1c[nH]c2ccccc12)C(=O)N[C@@H](CCC(N)=O)C(=O)N1CCC[C@H]1C(=O)N[C@H](C(=O)N1CCC[C@H]1C(=O)N[C@H](C(=O)O)C(C)C)[C@@H](C)CC [Peptide 1044.04]	5/5
CC[C@H](C)[C@H](N)C(=O)N[C@@H](CCSC)C(=O)N[C@@H](Cc1ccc(O)cc1)C(=O)N[C@@H](CO)C(=O)N[C@@H](C)C(=O)N[C@@H](Cc1c[nH]cn1)C(=O)N[C@@H](CC(=O)O)C(=O)N[C@H](C(=O)N[C@H](C(=O)N[C@H](C(=O)O)C(C)C)[C@@H](C)O)[C@@H](C)O [Peptide 1097.05]	3/3
CC(C)C[C@H](NC(=O)[C@H](Cc1c[nH]c2ccccc12)NC(=O)[C@H](Cc1ccccc1)NC(=O)[C@H](Cc1ccccc1)NC(=O)[C@H](CC(C)C)NC(=O)[C@@H](N)CC(C)C)C(=O)N[C@@H](CC(=O)O)C(=O)N[C@@H](CCCNC(=N)N)C(=O)N[C@@H](CO)C(=O)N[C@H](C(=O)O)C(C)C [Peptide 1097.09]	3/3
CC(C)C[C@H](NC(=O)[C@H](CCC(=O)O)NC(=O)[C@H](CCCCN)NC(=O)[C@H](C)NC(=O)[C@H](CC(C)C)NC(=O)[C@@H](N)C(C)C)C(=O)N[C@@H](CCCCN)C(=O)N[C@@H](Cc1ccccc1)C(=O)N[C@H](C(=O)O)C(C)C [Peptide 1097.17]	1/3
CC(C)C[C@H](NC(=O)[C@H](CCCCN)NC(=O)[C@H](CCCCN)NC(=O)[C@@H]1CCCN1C(=O)[C@@H](NC(=O)[C@H](CC(C)C)NC(=O)[C@@H](N)Cc1ccccc1)[C@@H](C)O)C(=O)N[C@@H](CCC(N)=O)C(=O)N[C@@H](CS)C(=O)N[C@H](C(=O)O)C(C)C [Peptide 1098.02]	3/4
CSCC[C@H](NC(=O)[C@H](CC(C)C)NC(=O)[C@H](CCC(N)=O)NC(=O)[C@H](CC(=O)O)NC(=O)[C@H](CC(N)=O)NC(=O)[C@H](CCSC)NC(=O)[C@@H](N)CCSC)C(=O)N[C@@H](Cc1ccccc1)C(=O)N[C@@H](CC(C)C)C(=O)O [Peptide 1126.01]	2/2
CSCC[C@H](NC(=O)[C@H](CC(C)C)NC(=O)[C@H](CCC(N)=O)NC(=O)[C@H](CC(=O)O)NC(=O)[C@H](CC(N)=O)NC(=O)[C@H](CCSC)NC(=O)[C@H](CCSC)NC(=O)[C@@H](N)CCCNC(=N)N)C(=O)N[C@@H](Cc1ccccc1)C(=O)N[C@@H](CC(C)C)C(=O)O [Peptide 1126.06]	1/1
CC(C)C[C@H](NC(=O)[C@H](CC(C)C)NC(=O)[C@H](Cc1ccccc1)NC(=O)[C@H](Cc1ccccc1)NC(=O)CNC(=O)CNC(=O)[C@H](C)NC(=O)[C@H](CC(C)C)NC(=O)[C@@H](N)C(C)C)C(=O)O [Peptide 1126.10]	1/2
CSCC[C@H](NC(=O)[C@@H](N)CC(C)C)C(=O)N[C@@H](Cc1ccc(O)cc1)C(=O)N[C@@H](CO)C(=O)N[C@@H](CC(C)C)C(=O)N[C@H](C(=O)N[C@@H](Cc1c[nH]cn1)C(=O)N[C@@H](CC(N)=O)C(=O)N[C@@H](CC(C)C)C(=O)O)C(C)C [Peptide 1126.14]	3/3
CC[C@H](C)[C@H](NC(=O)[C@H](Cc1ccc(O)cc1)NC(=O)[C@H](C)NC(=O)[C@@H](NC(=O)CNC(=O)[C@H](CCCNC(=N)N)NC(=O)[C@H](CCC(=O)O)NC(=O)[C@H](CCC(N)=O)NC(=O)[C@H](CC(C)C)NC(=O)[C@@H](N)CC(C)C)C(C)C)C(=O)O [Peptide 1129.01]	3/3
CSCC[C@H](NC(=O)CN)C(=O)N1CCC[C@H]1C(=O)N[C@@H](CCC(=O)O)C(=O)NCC(=O)N[C@@H](CC(=O)O)C(=O)N[C@@H](CC(C)C)C(=O)N[C@H](C(=O)N[C@@H](Cc1ccc(O)cc1)C(=O)N[C@H](C(=O)O)C(C)C)C(C)C [Peptide 1129.04]	0/1

Target: HLA-A*0201 (Homo sapiens, UniProt P04439, D140Y/D185E/D98H/E176V/E277Q/G131W/G231S/I119V/I121R/I166T/I218V/L300P/L318F/N151K/N90K/P208A/P217A/Q86G/Q94H/R138H/R169H/T345S)
Assay: HLA class I binding assay, purified HLA, inhibition of 125I-labelled probe peptide
Details: Binding affinity, Table XXII group headings ≦ 200 nM / > 200 nM; binding to HLA-A*0201

Compound	IC50 [nM]
CC(C)C[C@H](NC(=O)[C@H](CC(C)C)NC(=O)CNC(=O)[C@H](CC(N)=O)NC(=O)[C@H](Cc1ccc(O)cc1)NC(=O)[C@@H](NC(=O)[C@H](CC(=O)O)NC(=O)[C@H](CC(C)C)NC(=O)[C@H](C)N)C(C)C)C(=O)O [PAP.299]	≤ 200

Same assay, conditions: Table XXII group headings ≦ 200 nM / > 200 nM; binding to HLA-A*0201; read-out: Binding affinity

Compound	IC50 [nM]
CC(C)C[C@H](NC(=O)[C@H](CO)NC(=O)[C@H](CC(C)C)NC(=O)[C@H](CO)NC(=O)[C@H](C)NC(=O)[C@H](C)NC(=O)[C@H](CCCNC(=N)N)NC(=O)[C@H](C)NC(=O)[C@H](CC(C)C)NC(=O)[C@H](CC(C)C)NC(=O)[C@@H](N)CC(C)C)C(=O)O [PAP.6]	≤ 200
CC(C)C[C@H](NC(=O)[C@@H](N)Cc1ccccc1)C(=O)N[C@@H](CC(N)=O)C(=O)N[C@@H](CCC(=O)O)C(=O)N[C@@H](CO)C(=O)N[C@@H](Cc1ccc(O)cc1)C(=O)N[C@@H](CCCCN)C(=O)N[C@@H](Cc1c[nH]cn1)C(=O)N[C@@H](CCC(=O)O)C(=O)N[C@@H](CCC(N)=O)C(=O)N[C@H](C(=O)O)C(C)C [PAP.92]	≤ 200
CC(C)C[C@H](NC(=O)[C@@H](N)CC(C)C)C(=O)N[C@@H](Cc1c[nH]cn1)C(=O)N[C@@H](CCC(=O)O)C(=O)N[C@H](C(=O)N[C@@H](CC(=O)O)C(=O)N[C@@H](CO)C(=O)N[C@@H](C)C(=O)N[C@H](C(=O)O)C(C)C)[C@@H](C)O [PSM.4]	> 200
CC(C)C[C@H](NC(=O)[C@H](Cc1ccccc1)NC(=O)[C@H](Cc1ccccc1)NC(=O)CNC(=O)CNC(=O)[C@H](C)NC(=O)[C@H](CC(C)C)NC(=O)[C@@H](NC(=O)[C@H](CC(C)C)NC(=O)[C@H](C)N)C(C)C)C(=O)O [PSM.25]	> 200
CC(C)C[C@H](NC(=O)[C@H](Cc1ccccc1)NC(=O)[C@H](Cc1ccccc1)NC(=O)CNC(=O)CNC(=O)[C@H](C)NC(=O)[C@H](CC(C)C)NC(=O)[C@@H](NC(=O)[C@@H](N)CC(C)C)C(C)C)C(=O)O [PSM.26]	≤ 200
CC(C)C[C@H](NC(=O)CN)C(=O)N[C@@H](CC(C)C)C(=O)NCC(=O)N[C@@H](CO)C(=O)N[C@H](C(=O)N[C@@H](CCC(=O)O)C(=O)N[C@@H](Cc1c[nH]c2ccccc12)C(=O)N[C@@H](C)C(=O)O)[C@@H](C)O [PSM.427]	> 200
CC(C)C[C@H](NC(=O)[C@@H](N)CCCCN)C(=O)NCC(=O)N[C@@H](CO)C(=O)NCC(=O)N[C@@H](CC(N)=O)C(=O)N[C@@H](CC(=O)O)C(=O)N[C@@H](Cc1ccccc1)C(=O)N[C@@H](CCC(=O)O)C(=O)N[C@H](C(=O)O)C(C)C [PSM.514]	> 200
CC[C@H](C)[C@H](NC(=O)[C@H](Cc1ccccc1)NC(=O)[C@H](C)NC(=O)[C@H](CCCNC(=N)N)NC(=O)[C@H](CCC(=O)O)NC(=O)[C@H](CC(C)C)NC(=O)[C@H](Cc1ccccc1)NC(=O)[C@H](CCSC)NC(=O)[C@H](CC(C)C)NC(=O)[C@@H](N)CCC(N)=O)C(=O)O [PSM.667]	≤ 200
